Source: paper PMC10819767, “An ADAM10 Exosite Inhibitor Is Efficacious in an In Vivo Collagen-Induced Arthritis Model” (Pharmaceuticals, 2024)

Columns and labels:
ADAM17 = target: T1, ADAM17 (Homo sapiens, UniProt P78536); test: ADAM17 enzyme assay with glycosylated substrate DM2; type: biochemical; conditions: for selectivity against ADAM17 (in words): ADAM10 vs ADAM17
T1 construct: purchased R & D Systems (Minneapolis, MN, USA)
Experimental: (§1) ADAM10 and ADAM17 assays. Both assays were performed as published previously by us. Briefly, both assays followed the same general protocol. In total, 5 μL of the 2× enzyme solution (20 nM) in an assay buffer (10 mM Hepes, 0.001% Brij-35, pH 7.5) were added to solid bottom black 384 plates (Nunc, ThermoFisher, Waltham, MA, USA, cat# 264705). Next, test compounds and pharmacological controls were added to the corresponding wells using a 384-pin tool device (V & P Scientific, San Diego, CA, USA). After 60 min of incubation at RT, the reactions were started via the addition of 5 μL of the 2× solutions of glycosylated substrate DM2 (20 μM). The reactions were incubated at RT for 2 h, after which the fluorescence was measured using a Biotek H1 multimode microplate imager (λexcitation = 360 nm, λemission = 460 nm). IC50 values were calculated by fitting normalized data to the sigmoidal log vs. the response equation utilizing a non-linear regression analysis from GraphPad Prizm 9.

ADAM10 = target: T2, ADAM10 (Homo sapiens, UniProt O14672); test: ADAM10 enzyme assay with glycosylated substrate DM2; type: biochemical; conditions: for activity against ADAM10 (in words): SAR discussion
T2 construct: purchased R & D Systems (Minneapolis, MN, USA)
T2 sequence (O14672 214-748): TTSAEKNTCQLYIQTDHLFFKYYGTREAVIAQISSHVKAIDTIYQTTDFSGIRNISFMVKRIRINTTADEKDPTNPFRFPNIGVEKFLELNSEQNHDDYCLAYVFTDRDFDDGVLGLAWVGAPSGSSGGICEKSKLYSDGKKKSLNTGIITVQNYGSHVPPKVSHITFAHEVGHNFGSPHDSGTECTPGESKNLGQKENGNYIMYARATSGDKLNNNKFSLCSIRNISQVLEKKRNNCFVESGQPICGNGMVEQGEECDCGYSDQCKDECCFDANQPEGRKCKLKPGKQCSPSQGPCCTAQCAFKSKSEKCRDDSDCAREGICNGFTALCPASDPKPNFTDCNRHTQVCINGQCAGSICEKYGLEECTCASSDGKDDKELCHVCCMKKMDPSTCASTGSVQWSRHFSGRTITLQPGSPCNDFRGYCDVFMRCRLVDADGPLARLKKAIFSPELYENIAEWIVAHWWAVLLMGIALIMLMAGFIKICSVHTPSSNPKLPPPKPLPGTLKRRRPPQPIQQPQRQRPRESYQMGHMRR
Experimental: as §1

[1] = test system: articular joints affected by RA; test: Histopathology (H & E) of arthritic joint, CIA mice; type: in vivo, C57 BL/6 mice; conditions: indomethacin 2.5 mg/kg/day
Experimental: (§2) The sample size for therapeutic evaluation was calculated using power analysis based on experimental data from similar studies. In a two-sided test and setting the α value at 0.05 and desired power at 0.95, the sample size turned out to be 5 per group. We also expected deaths during the experiments; therefore, we used the formula Nt = N/1-q, where Nt is the number of mice initially used, N is the number required at the end of the study, and q is the proportion of attrition, which is generally 10%. Thus, at the end of the study period, we expected to have data from at least […] per group, which is enough to attain statistical significance if it exists. Data were analyzed using a one-way ANOVA followed by Dunnett’s test compared with the vehicle control. At the end of the study, the mice were anesthetized and sacrificed using CO2 euthanasia. The hind paws of the mice were subjected to a histopathological examination, and the serum was analyzed for CRP, TNF-α, IL-6, and IL-10, as described in the below sections. Histology. Limbs from euthanized animals were preserved in buffered formalin, decalcified, embedded, sectioned, and stained with hematoxylin and eosin (H & E). Microscopic images were acquired using the Lx 400 microscope (Labomed, Fremont, CA, USA).

C-reactive protein (CRP) = test: RA serum marker ELISA, CRP, CIA mice; type: in vivo, C57 BL/6 mice; conditions: CID 3117694 50 mg/kg/day; indomethacin 2.5 mg/kg
Experimental: as §2, with “sections.” for “sections. Histology. Limbs from euthanized animals were preserved in buffered formalin, decalcified, embedded, sectioned, and stained with hematoxylin and eosin (H & E). Microscopic images were acquired using the Lx 400 microscope (Labomed, Fremont, CA, USA).”
(§3) RA serum marker analysis. Blood was collected from the tail vein, and 100 µL was used for the assays. All assays were conducted using the manufacturer’s instructions for the respective assay kits. The following assay kits were purchased: Mouse TNF-α GENLISA™ ELISA (Krishgen BioSystems cat#KB2145, Mumbai, India), Mouse IL-10 GENLISA™ ELISA (Krishgen BioSystems cat#KB2072), Mouse hsC-Reactive Protein, hs-CRP GENLISA™ ELISA (Krishgen BioSystems cat#KLM0318), Mouse IL-6 GENLISA™ ELISA (Krishgen BioSystems cat#KB2068).

IL-6 = test: RA serum marker ELISA, IL-6, CIA mice; type: in vivo, C57 BL/6 mice; conditions: CID 3117694 50 mg/kg/day; indomethacin 2.5 mg/kg
Experimental: as §2, with “sections.” for “sections. Histology. Limbs from euthanized animals were preserved in buffered formalin, decalcified, embedded, sectioned, and stained with hematoxylin and eosin (H & E). Microscopic images were acquired using the Lx 400 microscope (Labomed, Fremont, CA, USA).”
as §3

TNFα = test: RA serum marker ELISA, TNFα, CIA mice; type: in vivo, C57 BL/6 mice; conditions: CID 3117694 50 mg/kg/day; indomethacin 2.5 mg/kg
Experimental: as §2, with “sections.” for “sections. Histology. Limbs from euthanized animals were preserved in buffered formalin, decalcified, embedded, sectioned, and stained with hematoxylin and eosin (H & E). Microscopic images were acquired using the Lx 400 microscope (Labomed, Fremont, CA, USA).”
as §3

IL-10 = test: RA serum marker ELISA, IL-10, CIA mice; type: in vivo, C57 BL/6 mice; conditions: CID 3117694 50 mg/kg/day; indomethacin 2.5 mg/kg
Experimental: as §2, with “sections.” for “sections. Histology. Limbs from euthanized animals were preserved in buffered formalin, decalcified, embedded, sectioned, and stained with hematoxylin and eosin (H & E). Microscopic images were acquired using the Lx 400 microscope (Labomed, Fremont, CA, USA).”
as §3

[2] = test system: collagen-induced arthritis (CIA) model; test: CIA mouse model: clinical arthritis score and paw swelling; type: in vivo, C57 BL/6 mice; conditions: indomethacin 2.5 mg/kg oral, scale 0–4
Experimental: In vivo efficacy in the CIA mouse model. All animal studies were conducted in accordance with NSU IACUC guidelines. Study protocol #2021.04.DM5 was approved by NSU IACUC before the commencement of the studies. CID 3117694 and indomethacin were ground with a small amount of the dispersing agent (0.5% HPMC (3 cP)–0.5% Tween 80) using a mortar and a pestle and mixed repeatedly to form a smooth paste. The paste was moved to a graduated cylinder and filled up to the required volume with the dispersing agent to form a suspension, as described elsewhere. The test compound (10, 30, and 50 mg/kg) and indomethacin (2.5 mg/kg) were administered with a mouse gavage needle (gauge no: 18, BD, catalog number: 653902) through the oral route as a suspension with a 5 mL/kg dose volume (from day 0 to day 28). In this study, 6–8-week-old C57 BL/6 mice from Charles River (male and female) were used. Animals were randomly assigned to one of the following six groups: (1) normal (non-RA control), (2) RA control untreated, (3) RA control treated with 2.5 mg/kg/day indomethacin, and 3 test groups (CID 3117694 (10 mg/kg/day, 30 mg/kg/day, and 50 mg/kg/day)) to provide an estimate for the lead compound’s efficacy range. Each group had three males and three females assigned to the control for gender-based differences. Arthritis was induced in the right paws of the mice under anaesthesia. The left paw of the mice was used as a control. A total of 10 µL collagen from bovine (type II collagen) nasal septum emulsion (2 mg/mL) was injected into the right knee joint with a glass Hamilton syringe and 25 G needles for intraarticular (i.a.) injection, followed by a total of 100 µL Complete Freund’s adjuvant (CFA) emulsion was injected at the back of mice using a syringe with 25 G needles subcutaneously (s.c.). On day 14 after the first injection, the mice were injected, i.e., with 10 µL of collagen from the bovine nasal septum ([…]) and s.c. with a 100 µL CFA emulsion for a boost injection. Arthritis progression was monitored using a clinical arthritis scoring system (0–4), and paw swelling was measured with the help of a plethysmograph on days 0, 14, 21, and 28 after the induction of arthritis. […] After the administration of a primary dose of collagen from the bovine nasal septum, CFA scoring was assessed. Measurements were taken on days 0, 14, 21, and 28 after the induction of arthritis in induced paws (right paw) and non-arthritis paws (left paw). CID 3117694 (10 mg/kg/day, 30 mg/kg/day, and 50 mg/kg/day) and pharmacological control (indomethacin 2.5 mg/kg/day) treatment were given every day for 28 days beginning from day 1 via oral gavage in hydroxy-propyl-methyl cellulose (HPMC) suspension.

T1 sequence (P78536 215-824, species assumed): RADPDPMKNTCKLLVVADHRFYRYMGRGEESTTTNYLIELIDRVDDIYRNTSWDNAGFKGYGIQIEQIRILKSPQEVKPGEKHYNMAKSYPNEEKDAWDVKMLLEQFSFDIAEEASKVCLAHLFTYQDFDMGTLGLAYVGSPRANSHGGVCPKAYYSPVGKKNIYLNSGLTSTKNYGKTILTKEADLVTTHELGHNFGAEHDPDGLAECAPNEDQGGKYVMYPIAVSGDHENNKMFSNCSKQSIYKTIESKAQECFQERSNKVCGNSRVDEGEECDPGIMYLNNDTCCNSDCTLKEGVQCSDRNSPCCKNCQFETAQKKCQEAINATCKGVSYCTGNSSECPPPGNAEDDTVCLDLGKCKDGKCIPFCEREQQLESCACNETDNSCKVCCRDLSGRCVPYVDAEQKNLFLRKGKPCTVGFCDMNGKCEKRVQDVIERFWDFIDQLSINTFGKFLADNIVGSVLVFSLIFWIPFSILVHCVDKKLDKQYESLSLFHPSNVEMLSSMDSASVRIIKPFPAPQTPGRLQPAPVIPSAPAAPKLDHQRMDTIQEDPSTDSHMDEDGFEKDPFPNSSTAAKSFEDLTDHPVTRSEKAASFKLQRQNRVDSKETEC

Row | SMILES | IC50 (ADAM17) [µM] | IC50 (ADAM10) [µM] | activity against ADAM10 (in words) (ADAM10) | further results
1 | Cc1c(Cl)cccc1NC(=O)C(=O)NNC(=O)c1ccc(C(C)(C)C)cc1 [CID 2218294] | > 100 | > 100 | – | –
2 | Cc1ccccc1NC(=O)C(=O)NNC(=O)c1ccc(Cl)cc1 [CID 2869359] | > 100 | > 100 | did not rescue the activity | –
3 | COc1ccc2c(c1)c(CC(=O)O)c(C)n2C(=O)c1ccc(Cl)cc1 [indomethacin, reference compound] | – | – | – | histopathological findings (in words) [1]: presence of inflammation and hyperplasia; histopathological findings (in words) ([1]; listed as Indomethacin): only residual inflammation and hyperplasia; CRP blood level vs healthy control (C-reactive protein (CRP)): the same as that of the healthy controls; IL-6 blood level vs healthy control (IL-6): the same as that of the healthy controls; TNFα blood level vs healthy control (TNFα): the same as that of the healthy controls; IL-10 blood level vs healthy control (IL-10): the same as that of the healthy controls; disease score ([2]; day 21): 2; disease score ([2]; day 28): 1

Continued, in another order:

Row | IC50 (ADAM17) [µM] | IC50 (ADAM10) [µM] | activity against ADAM10 (in words) (ADAM10) | SMILES | further results
4 | > 100 | > 100 | – | CCc1ccc(NC(=O)C(=O)NNC(=O)c2ccc(C(C)(C)C)cc2)cc1 [CID 2113284] | –
5 | > 100 | > 100 | – | Cc1ccc(NC(=O)C(=O)NNC(=O)c2ccc(C(C)(C)C)cc2)cc1Cl [CID 2213247] | –
6 | 33 | 33 | reduced affinity | COc1ccccc1NC(=O)C(=O)NNC(=O)c1ccccc1Cl [CID 2273473] | selectivity against ADAM17 (in words) (ADAM17): no selectivity
7 | 2 | 2.8 | retrieved the activity | Cc1ccccc1C(=O)NNC(=O)C(=O)Nc1cccc2ccccc12 [CID 2841765] | selectivity against ADAM17 (in words) (ADAM17): selectivity against ADAM17 was lost
